The results in this text go back to patent publication US20170246137A1, “SULFESTROL FOR TREATING CANCER” (CHAMAELEO PHARMA BVBA, priority 2012, published 2017).

The subject of series [1] is platelet-rich plasma (PRP). The series is described as follows: Platelet-aggregation-inducing effects in platelet-rich plasma, absorbance 630 nm. It counts as cell-based. To be noted: 7 minutes, human PRP. On the procedure:
Blood necessary to generate PRP was obtained from 4 healthy human volunteers. 100 ml of fresh venous blood from each donor was isolated directly into tubes containing 1/10th volume of the anti-coagulant Tri-Sodium Citrate (3.2% w/v). The blood and anti-coagulant were immediately mixed and the final concentration of Tri-Sodium Citrate was 0.0106 M.
PRP was prepared by centrifugation of anti-coagulated blood at 180 g for 10 minutes at room temperature. The cloudy yellow supernatant containing the platelets was removed and placed into a clean polypropylene tube. Platelet-poor plasma (PPP) was prepared by centrifuging the remaining sample at 1,200 g for 20 minutes at room temperature. The PRP was adjusted to a suitable platelet count and absorbance at 630 nm by addition of PPP.
All three compounds were dissolved in 100% DMSO to give a stock concentration of 60 mM. […] […] 100 nM gamma thrombin (Cambridge bioscience) was used as control for platelet aggregation. 90 μl aliquots of PRP were added to 96 wells plates. A baseline absorbance reading was taken at 630 nm. 5 μl of the compounds and gamma thrombin control was added to the appropriate PRP.
The plates were incubated at room temperature for 7 minutes on a plate shaker with continuous shaking. A second A630 nm reading was made after the 7 minutes incubation to measure any platelet aggregation induced by the compounds.

For series [2], the system named is MDA-MB-231. Kind of series: In vitro direct cytotoxicity, Cell titer Blue viability, 72 hrs. On the procedure:
Cells were maintained in vitro in RPMI 1640 containing 10% (v/v) heat inactivated FBS and 2 mM L-glutamine (growth media) at 37° C. in 5% CO2 and humidified conditions. Cells were harvested, washed, resuspended into growth medium and counted. The cells were re-suspended into assay media (RPMI 1640+1% (v/v) heat inactivated FBS+ and 2 mM L-glutamine) at 0.5-1×10^5 cells/ml (dependent upon cell type) and plated into 96-well assay plates (Corning, black-wall plates) in 50 ul/well aliquots.
Plates were incubated overnight at 37° C. in 5% humidified CO2 prior to addition of the compounds. […] Stocks of all compounds were then serially diluted. Final concentrations to which cells were exposed were 300, 150, 75, 37.5, 18.75, 9.4, 4.7, 2.3, 1.2, 0.6 μM. Positive control was Cisplatin. Cisplatin was diluted in 1% FBS media to give a stock concentration of 1 mM. Cisplatin stock was then serially diluted. Final concentrations to which cells were exposed were 100, 50, 25, 12.5, 6.3, 3.1, 1.6, 0.8, 0.4, 0.2 μM.
Plates were incubated for 72 hrs at 37° C. in 5% humidified CO2 after addition of the compounds. Viability of the cells was assessed with the Cell titer Blue™ (Promega) assay. 10 μl of Cell titer Blue™ reagents was added to each test/blank well. Plates were incubated 3 h at 37° C. in 5% humidified CO2 prior to analysis. Fluorescence was measured with a Flex II station plate reader. Excitation wavelength was 570 nm, emission wave length was 600 nm, cut off was 590 nm. Raw data was processed by GraphPad Prism to calculate mean, standard deviation and IC50 values.
On the technique in general: The colour change of resazurin is a common sign of viable cells or microbes.

By IC50 is commonly meant the concentration at which inhibition is half-maximal. For “4-(4-(4-oxidophenyl)hex-3-en-3-yl)phenyl sulfate [Mono-Sulfestrol]”, the “Absorbance (630 nm)” value is recorded as 0.274 ± 0.034 in series [1] (2.3 μM, high absorbance = low aggregation); 0.277 ± 0.029 in series [1] (4.7 μM); 0.272 ± 0.029 in series [1] (9.4 μM); 0.275 ± 0.029 in series [1] (18.75 μM); 0.278 ± 0.030 in series [1] (37.5 μM); 0.281 ± 0.031 in series [1] (75 μM). The “Absorbance (630 nm)” value in series [1] (150 μM) was 0.283 ± 0.036. For the same substance, the “cytotoxicity in vitro (in words)” value in series [2] (MDA-MB231) was “cytotoxic”. Also, in series [2] (read-out: IC50 value, MDA-MB-231, triple negative breast cancer cell line, 72 hrs), the IC50 amounted to 185 µM.
